In ChEMBL document CHEMBL1201862, “PubChem BioAssay data set” (2004):
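A five-concentration, 48-hour dose response in 96-well plates underlies each endpoint, interpolated linearly between surrounding concentrations. GI50 = concentration required for 50% inhibition of growth.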 Calls of active or inactive are those of the source. No stated cut-off is given here; in the data, active = GI50 up to about 1.1 µM and inactive = higher.

How the values were obtained:
Assay in all cases: growth of human tumour cells (NCI), 48 h
[1] = test system: SK-OV-3
[2] = test system: SF-268
[3] = test system: IGROV-1
[4] = test system: HT-29
[5] = test system: Malme-3M
[6] = test system: K562
[7] = test system: U-251
[8] = test system: NCI-H522
[9] = test system: OVCAR-4
[10] = test system: HCC 2998
[11] = test system: OVCAR-8
[12] = test system: NCI-H23
[13] = test system: MCF7
[14] = test system: MDA-MB-231
[15] = test system: SF-295
[16] = test system: ACHN
[17] = test system: CCRF-CEM
[18] = test system: HOP-92
[19] = test system: LOX IMVI
[20] = test system: SR

| SMILES | GI50 [1] | GI50 [2] | GI50 [3] | GI50 [4] | GI50 [5] | GI50 [6] | GI50 [7] | GI50 [8] | GI50 [9] | GI50 [10] | GI50 [11] | GI50 [12] | GI50 [13] | GI50 [14] | GI50 [15] | GI50 [16] | GI50 [17] | GI50 [18] | GI50 [19] | GI50 [20] |
| --- | --- | --- | --- | --- | --- | --- | --- | --- | --- | --- | --- | --- | --- | --- | --- | --- | --- | --- | --- | --- |
| Cc1ccc(-n2nnc(C#N)c2O)cc1 | > 100 µM (inactive) | > 100 µM (inactive) | > 100 µM (inactive) | > 100 µM (inactive) | > 100 µM (inactive) | > 100 µM (inactive) | > 100 µM (inactive) | > 100 µM (inactive) | > 100 µM (inactive) | > 100 µM (inactive) | > 100 µM (inactive) | > 100 µM (inactive) | > 100 µM (inactive) | > 100 µM (inactive) | > 100 µM (inactive) | > 100 µM (inactive) | > 100 µM (inactive) | – | – | – |
| COC(=O)C1CC(C=O)=C(SC)N1 (stereo unspecified) | > 50 µM (inactive) | > 50 µM (inactive) | > 50 µM (inactive) | > 50 µM (inactive) | > 50 µM (inactive) | > 50 µM (inactive) | > 50 µM (inactive) | > 50 µM (inactive) | > 50 µM (inactive) | > 50 µM (inactive) | > 50 µM (inactive) | > 50 µM (inactive) | > 50 µM (inactive) | > 50 µM (inactive) | > 50 µM (inactive) | > 50 µM (inactive) | – | > 50 µM (inactive) | – | – |
| O=NN1C(c2ccccc2)CC(=NO)CC1c1ccccc1 (stereo unspecified) | > 100 µM (inactive) | > 100 µM (inactive) | > 100 µM (inactive) | 20.5 µM (inactive) | > 100 µM (inactive) | 43.8 µM (inactive) | > 100 µM (inactive) | > 100 µM (inactive) | > 100 µM (inactive) | 79.1 µM (inactive) | > 100 µM (inactive) | > 100 µM (inactive) | > 100 µM (inactive) | > 100 µM (inactive) | > 100 µM (inactive) | > 100 µM (inactive) | – | > 100 µM (inactive) | > 100 µM (inactive) | – |
| Nc1nc2c(ncn2CC2CCC(CO)C2)c(=O)[nH]1 (stereo unspecified) | > 100 µM (inactive) | > 100 µM (inactive) | – | – | – | > 100 µM (inactive) | > 100 µM (inactive) | – | > 100 µM (inactive) | > 100 µM (inactive) | – | – | > 100 µM (inactive) | > 100 µM (inactive) | > 100 µM (inactive) | > 100 µM (inactive) | > 100 µM (inactive) | > 100 µM (inactive) | > 100 µM (inactive) | – |
| CC(C)=c1sc(=C(C)C)c2c1=NC(C)(C)N=2 | > 100 µM (inactive) | 64.9 µM (inactive) | 42.1 µM (inactive) | 74.6 µM (inactive) | > 100 µM (inactive) | – | 46 µM (inactive) | 32.9 µM (inactive) | > 100 µM (inactive) | 27.5 µM (inactive) | 94 µM (inactive) | 53.7 µM (inactive) | 48.3 µM (inactive) | > 100 µM (inactive) | 75.5 µM (inactive) | 37.5 µM (inactive) | 44.3 µM (inactive) | – | 27 µM (inactive) | – |
| Oc1ccc(Br)cc1/C=N/c1c(NC2CCCCC2)oc2ccc(Br)cc12 | 87.5 µM (inactive) | 33.2 µM (inactive) | 56.4 µM (inactive) | 26.8 µM (inactive) | 31.7 µM (inactive) | 10.7 µM (inactive) | 34.9 µM (inactive) | – | 38 µM (inactive) | 35.8 µM (inactive) | 37.4 µM (inactive) | 15.5 µM (inactive) | 16.2 µM (inactive) | 61.5 µM (inactive) | 47.4 µM (inactive) | 35.8 µM (inactive) | 4.1 µM (inactive) | – | 18.3 µM (inactive) | 45.9 µM (inactive) |
| CC(=O)/C(=C\n1c(=S)[nH]c2ccc([N+](=O)[O-])cc21)C(=O)Nc1ccccc1C | > 100 µM (inactive) | – | > 100 µM (inactive) | > 100 µM (inactive) | > 100 µM (inactive) | > 100 µM (inactive) | > 100 µM (inactive) | > 100 µM (inactive) | > 100 µM (inactive) | > 100 µM (inactive) | > 100 µM (inactive) | > 100 µM (inactive) | > 100 µM (inactive) | > 100 µM (inactive) | > 100 µM (inactive) | > 100 µM (inactive) | > 100 µM (inactive) | – | > 100 µM (inactive) | 88.5 µM (inactive) |
| CC(C)Oc1ccc(CNC2=NCCO2)c2ccccc12 | 16.3 µM (inactive) | 22.3 µM (inactive) | 12.6 µM (inactive) | 4.01 µM (inactive) | 14.1 µM (inactive) | 4.57 µM (inactive) | 13.6 µM (inactive) | – | 13.9 µM (inactive) | 10.9 µM (inactive) | 15.2 µM (inactive) | 14.6 µM (inactive) | 14.1 µM (inactive) | 14.5 µM (inactive) | 13.7 µM (inactive) | 14 µM (inactive) | 13.3 µM (inactive) | – | – | 7.85 µM (inactive) |
| CC(CN(C)C)C(C#N)(c1ccccc1)c1ccccc1 (stereo unspecified) | > 100 µM (inactive) | > 100 µM (inactive) | > 100 µM (inactive) | 63.7 µM (inactive) | > 100 µM (inactive) | 65.2 µM (inactive) | > 100 µM (inactive) | > 100 µM (inactive) | > 100 µM (inactive) | 43.8 µM (inactive) | > 100 µM (inactive) | > 100 µM (inactive) | > 100 µM (inactive) | > 100 µM (inactive) | > 100 µM (inactive) | > 100 µM (inactive) | 49.1 µM (inactive) | 43.4 µM (inactive) | > 100 µM (inactive) | – |
| CC(=O)Nc1ccc(C(=O)NN2C(=O)CSC2c2ccccc2)cc1 (stereo unspecified) | > 100 µM (inactive) | > 100 µM (inactive) | > 100 µM (inactive) | > 100 µM (inactive) | – | > 100 µM (inactive) | > 100 µM (inactive) | – | > 100 µM (inactive) | > 100 µM (inactive) | > 100 µM (inactive) | > 100 µM (inactive) | > 100 µM (inactive) | > 100 µM (inactive) | > 100 µM (inactive) | > 100 µM (inactive) | > 100 µM (inactive) | > 100 µM (inactive) | – | – |
| CCOC(=O)C1=C(C)N(c2ccc(Cl)cc2)C2(O)C=CC(O)=C3C(=O)c4ccccc4C(=O)C312 (stereo unspecified) | 10.6 µM (inactive) | 1.67 µM (inactive) | 3.94 µM (inactive) | – | 0.483 µM (active) | 4.23 µM (inactive) | 3.59 µM (inactive) | 2.21 µM (inactive) | 3.97 µM (inactive) | – | 5.11 µM (inactive) | 10.1 µM (inactive) | 2.72 µM (inactive) | 10.9 µM (inactive) | 6.93 µM (inactive) | 5 µM (inactive) | 2.34 µM (inactive) | 1.73 µM (inactive) | 3.72 µM (inactive) | – |
| NC1c2c(Cl)sc(Cl)c2C(=O)C1O (stereo unspecified) | > 100 µM (inactive) | 43.1 µM (inactive) | 57.9 µM (inactive) | 19.7 µM (inactive) | 37.9 µM (inactive) | 29.4 µM (inactive) | 21.2 µM (inactive) | 18.2 µM (inactive) | 17.2 µM (inactive) | 17 µM (inactive) | 25.9 µM (inactive) | 15.6 µM (inactive) | 18.9 µM (inactive) | 37.8 µM (inactive) | 32.6 µM (inactive) | 27.5 µM (inactive) | 19 µM (inactive) | 13.1 µM (inactive) | 23.4 µM (inactive) | – |
